Data on six compounds can be found in PMC12602503, “AaeAP2a, a scorpion-derived antimicrobial peptide, combats carbapenem-resistant Acinetobacter baumannii via membrane disruption and triggered metabolic collapse” (Frontiers in Microbiology, 2025).

Data set [1] deals with human embryonic kidney 293 T cells. In words: Cytotoxicity, CCK-8. Format: cell-based. As to conditions: 16 × MIC, 24 h. On the procedure: (§1) To systematically evaluate the biosafety of the antimicrobial peptide AaeAP2a, we assessed its hemolytic activity and cytotoxicity ([Liu et al., 2020a]; [Zhou F. et al., 2022]). A 4% (v/v) erythrocyte suspension was prepared from freshly collected anticoagulated mouse blood by repeatedly resuspending and washing the cells three times with phosphate-buffered saline (PBS), following the established protocol. […] In this test, 1% (v/v) Triton X-100 was used as the positive control. Three replicates per treatment group were used to study OD at 540 nm using a microplate reader. The cytotoxicity of AaeAP2a on human embryonic kidney 293 T cells was tested using the Cell Counting Kit - 8 (CCK-8). […] The CCK-8 assay was thus performed, with three replicates recorded for each concentration.

Another data set has as its system horse erythrocytes. As to conditions: 64 μg/mL; 2% horse erythrocyte suspension; ref Du et al.; cited from earlier work. The text has this: Safety and stability are essential prerequisites for the clinical application of pharmaceutical agents.
For another data set, the system named is mouse erythrocytes. In words: Hemolytic activity. Format: cell-based. As to conditions: 4% mouse erythrocyte suspension, 37 °C, 1 h, OD 540 nm. On the procedure:
as §1

The test system of a further data set is A. baumannii ATCC 19606. In words: microbe, parasite or virus in culture. It counts as cell-based, Acinetobacter baumannii. The conditions noted are these: for MIC: CLSI M100-ED34, MHB, triplicate; for Interpretation: CLSI interpretation of MIC. On the procedure: (§2) The inhibitory activity of the antimicrobial peptide was assessed using the broth microdilution method following the CLSI M100-ED34 standard ([Humphries et al., 2021]). A single colony of A. baumannii was isolated and inoculated into Mueller-Hinton Broth (MHB), then incubated overnight at 37 °C with agitation at 180 rpm. The overnight cultures were adjusted to a 0.5 McFarland turbidity standard, after which it was diluted 1:100 in MHB medium. […] A. baumannii ATCC 19606 served as the control strain, and the experiments were conducted in triplicate.

A further data set deals with CRAB 236. In words: microbe, parasite or virus in culture. Format: cell-based, Acinetobacter baumannii. The conditions noted are these: for Interpretation: CLSI interpretation of MIC. How it is done:
as §2

For another data set, the system named is trypsin. In words: Protease resistance, read out by MIC. Format: in vitro ADME. As to conditions: trypsin concentrations exceeding 40 μg/mL, 1 h, 37 °C; MIC vs ATCC 19606; triplicate. How it is done:
(§3) We thoroughly examined the effects of storage at room temperature, repeated freeze–thaw cycles, temperature variations, pH levels, salt ions, urea, and protease treatment on the antimicrobial activity of peptide AaeAP2a ([Zhu et al., 2022]). Through 0 to 12 freeze–thaw iterations, AaeAP2a was incubated for 1 h at various temperatures (0, 25, 50, 75, and 100 °C) and pH values (3 to 11). Additionally, the peptide was incubated with four salt ions—NaCl, KCl, CaCl2, and MgCl2—at concentrations of […], as well as with urea at concentrations of […] for 1 h. Furthermore, AaeAP2a was treated with proteinase K or trypsin at concentrations ranging from 0 to 100 μg/mL (i.e., 0, 20, 40, 60, 80, and 100 μg/mL) for 1 h at 37 °C. The changes in its antimicrobial activity were quantitatively assessed using the MIC method. All assays were conducted in triplicate. […] Proteinase K, Trypsin, and Urea were obtained from Beyotime Biotechnology (China), while all other reagents were purchased from Macklin (China).

The next data set addresses T1, proteinase K (Parengyodontium album, UniProt P06873).
T1 construct: purchased Beyotime Biotechnology (China)
In words: Protease resistance, read out by MIC. It counts as in vitro ADME. As to conditions: proteinase K 0–100 μg/mL, 1 h, 37 °C; MIC vs ATCC 19606; triplicate. How it is done: as §3

In data set [2] the test system is Escherichia coli biofilms. The conditions noted are these: 1 × MIC; ref Luo et al., 2024; cited from earlier work. The text has this: In addition to […] the permeability of antimicrobial agents, bacterial biofilms, which rely on a complex matrix of extracellular polymeric substances, support the evolution of bacterial drug resistance, creating a protective barrier against drug-induced killing ([Verderosa et al., 2019]). AMPs have shown dual potential in meeting biofilm-related chronic infections: they can inhibit the initial stages of biofilm formation and eradicate mature biofilms. In this study, AaeAP2a, at a 4 × MIC, obtained an inhibition rate approaching 80% against biofilms formed by two strains of Acinetobacter ...

Where [3] appears, read: CRAB 236, broth microdilution, CLSI M100-ED34, MHB, triplicate.
The mark [4] stands for this setting: Acinetobacter baumannii, ATCC19606, broth microdilution, read-out: MIC.

In brackets after ≈: the same amount, converted by molar mass. Entries after “also recorded” stand apart in the source; their conditions may differ. Like-named read-outs stand apart in the source and are kept apart here. No end group written: not given here.
Throughout, for Interpretation: key: R, Resistant; I, Intermediate; S, Sensitive.

T1 sequence (P06873 106-384): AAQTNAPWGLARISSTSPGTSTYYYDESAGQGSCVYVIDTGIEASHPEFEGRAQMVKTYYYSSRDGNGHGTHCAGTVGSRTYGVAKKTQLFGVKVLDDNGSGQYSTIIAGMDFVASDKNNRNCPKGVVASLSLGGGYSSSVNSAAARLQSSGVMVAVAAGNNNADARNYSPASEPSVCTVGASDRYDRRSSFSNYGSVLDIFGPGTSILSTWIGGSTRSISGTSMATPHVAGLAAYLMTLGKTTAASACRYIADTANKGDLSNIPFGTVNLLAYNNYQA

Turning to FLFKLIPKAIKGLVKAIRK [AaeAP2a], the Cell viability in data set [1] is over 90%. In addition, the Hemolysis result with horse erythrocytes is “complete lysis”; in the data set on mouse erythrocytes (16 × MIC), under 5%; in the data set on mouse erythrocytes (64 × MIC (200 μg/mL)), under 5%. For the same compound, the MIC against A. baumannii ATCC 19606 (broth microdilution) amounted to 3.125 µg/mL; against CRAB 236 (setting [3]) it was 6.25 µg/mL. Besides, in the data set with trypsin, the “Activity after trypsin treatment” value is on record as “markedly reduced; also recorded: diminished”. Further, the “Resistance to proteinase K” value on proteinase K is “substantial resistance”.
For the compound `CO/N=C(\C(=O)N[C@@H]1C(=O)N2C(C(=O)O)=C(CSc3nc(=O)c(=O)[nH]n3C)CS[C@H]12)c1csc(N)n1` [Ceftriaxone], the MIC with A. baumannii ATCC 19606 (setting [4]) was 16 µg/mL (≈ 28.9 µM); with CRAB 236 (Acinetobacter baumannii), 32 µg/mL (≈ 57.7 µM). Also, the Interpretation entry in the data set with A. baumannii ATCC 19606 and in the data set with CRAB 236 (CRAB 236) was “I” each time.
In the case of `CN(C)[C@@H]1C(O)=C(C(N)=O)C(=O)[C@@]2(O)C(O)=C3C(=O)c4c(O)cccc4[C@@](C)(O)[C@H]3C[C@@H]12` [Tetracycline], the values for the MIC with A. baumannii ATCC 19606 (setting [4]) and in the data set with CRAB 236 (Acinetobacter baumannii) were 2 µg/mL (≈ 4.5 µM) and 64 µg/mL (≈ 144 µM), respectively. Also, the Interpretation result is given as “S” in the data set with A. baumannii ATCC 19606 and “R” in the data set on CRAB 236 (CRAB 236).
Turning to Colistin, the Interpretation result with A. baumannii ATCC 19606 and in the data set with CRAB 236 (CRAB 236) was “S” each time. In addition, the MIC against A. baumannii ATCC 19606 (broth microdilution) turned out to be 2 µg/mL; against CRAB 236 (setting [3]) it was 0.5 µg/mL. For the same compound, the “Eradication efficiency against Escherichia coli biofilms” value in data set [2] is given as 35%.
With `C[C@@H](O)[C@H]1C(=O)N2C(C(=O)O)=C(S[C@@H]3CN[C@H](C(=O)N(C)C)C3)[C@H](C)[C@H]12` [Meropenem], the MIC in the data set on A. baumannii ATCC 19606 (setting [4]) is 2 µg/mL (≈ 5.22 µM); in the data set with CRAB 236 (Acinetobacter baumannii), 16 µg/mL (≈ 41.7 µM). The results for the Interpretation result with A. baumannii ATCC 19606 and in the data set with CRAB 236 (CRAB 236) were “S” and “R”, respectively.
With `CNC(C)C1CCC(N)C(OC2C(N)CC(N)C(OC3OCC(C)(O)C(NC)C3O)C2O)O1` (centres unmarked) [Gentamicin], the figures for the MIC in the data set on A. baumannii ATCC 19606 (setting [4]) and in the data set with CRAB 236 (Acinetobacter baumannii) were 1 µg/mL (≈ 2.09 µM) and over 32 µg/mL, respectively. Besides, the Interpretation entry with A. baumannii ATCC 19606 is recorded as “S”; in the data set on CRAB 236 (CRAB 236), “R”.
